Assay results from the NIST ThermoML archive (doi:10.1021/je700260f).

Details: 313.15 K, Liquid, Vibrating tube method

FC(C(F)(F)F)C(F)(F)F [1,1,1,2,3,3,3-heptafluoropropane]
Details | mass density [kg/m3]
20571 kPa | 1453
20603 kPa | 1453
20639 kPa | 1453.2
20675 kPa | 1453.5
20721 kPa | 1453.6
20757 kPa | 1453.8
20799 kPa | 1454.1
20826 kPa | 1454.2
20865 kPa | 1454.4
20902 kPa | 1454.4
20933 kPa | 1454.7
20969 kPa | 1454.7
21003 kPa | 1454.9
21049 kPa | 1455
21080 kPa | 1455.2
21213 kPa | 1455.8
21240 kPa | 1455.9
21275 kPa | 1456
21319 kPa | 1456.3
21355 kPa | 1456.5
21405 kPa | 1456.7
21435 kPa | 1456.8
21466 kPa | 1456.9
21512 kPa | 1457.1
21547 kPa | 1457.2
21593 kPa | 1457.5
21628 kPa | 1457.6
21665 kPa | 1457.8
21700 kPa | 1457.8
21742 kPa | 1458
21776 kPa | 1458.2
21813 kPa | 1458.3
21844 kPa | 1458.5
21885 kPa | 1458.7
21927 kPa | 1458.9
21953 kPa | 1459
21990 kPa | 1459.2
22027 kPa | 1459.2
22064 kPa | 1459.5
22100 kPa | 1459.6
22131 kPa | 1459.8
22172 kPa | 1459.9
22203 kPa | 1460.1
22245 kPa | 1460.1
22276 kPa | 1460.2
22312 kPa | 1460.6
22349 kPa | 1460.5
22385 kPa | 1460.8
22411 kPa | 1460.8
22447 kPa | 1461
22489 kPa | 1461.3
22532 kPa | 1461.4
22579 kPa | 1461.6
22611 kPa | 1461.7
22653 kPa | 1461.9
22684 kPa | 1462.2
22722 kPa | 1462.2
22758 kPa | 1462.5
22796 kPa | 1462.5
22828 kPa | 1462.7
22876 kPa | 1462.9
22922 kPa | 1463.1
22954 kPa | 1463.3
22986 kPa | 1463.2
23028 kPa | 1463.7
23054 kPa | 1463.7
23096 kPa | 1463.7
23132 kPa | 1464
23180 kPa | 1464.2
23217 kPa | 1464.3
23384 kPa | 1465
23422 kPa | 1465.2
23463 kPa | 1465.3
23511 kPa | 1465.4
23548 kPa | 1465.7
23585 kPa | 1465.8
23623 kPa | 1466
23672 kPa | 1466.2
23710 kPa | 1466.2
23760 kPa | 1466.5
23805 kPa | 1466.6
23840 kPa | 1466.9
23893 kPa | 1467
23939 kPa | 1467.2
23980 kPa | 1467.2
24015 kPa | 1467.5
24073 kPa | 1467.7
24121 kPa | 1467.8
24163 kPa | 1468.1
24204 kPa | 1468.4
24258 kPa | 1468.6
24299 kPa | 1468.7
24341 kPa | 1468.9
24400 kPa | 1469.2
24441 kPa | 1469.3
24471 kPa | 1469.4
24517 kPa | 1469.5
24552 kPa | 1469.6
24586 kPa | 1469.7
24643 kPa | 1470
24690 kPa | 1470.3
24731 kPa | 1470.4
24772 kPa | 1470.6
